Laboratory results taken from publication PMC8007833, “Insights into Acinetobacter baumannii fatty acid synthesis 3-oxoacyl-ACP reductases” (Scientific Reports, 2021).

Experiments:
HMwFabG (ABO12488.2) = target: T1, HMwFabG (ABO12488.2) (Acinetobacter baumannii, UniProt A0A219C8F5); test: coenzyme oxidation, absorbance at […] nm; format: biochemical; conditions: 200 µM NADH, 500 µM acetoacetyl-CoA, 20 mM HEPES pH 7.4, 125 mM NaCl, 37 °C, 30 min
T1 construct: gene fabG_9; codon-optimised gene in pMCSG21, E. coli BL21(DE3) pLysS; N-terminal 6-His tag cut by TEV; 463 residues, 48 kDa protomer, homodimer
T1 sequence (A0A219C8F5 1-463): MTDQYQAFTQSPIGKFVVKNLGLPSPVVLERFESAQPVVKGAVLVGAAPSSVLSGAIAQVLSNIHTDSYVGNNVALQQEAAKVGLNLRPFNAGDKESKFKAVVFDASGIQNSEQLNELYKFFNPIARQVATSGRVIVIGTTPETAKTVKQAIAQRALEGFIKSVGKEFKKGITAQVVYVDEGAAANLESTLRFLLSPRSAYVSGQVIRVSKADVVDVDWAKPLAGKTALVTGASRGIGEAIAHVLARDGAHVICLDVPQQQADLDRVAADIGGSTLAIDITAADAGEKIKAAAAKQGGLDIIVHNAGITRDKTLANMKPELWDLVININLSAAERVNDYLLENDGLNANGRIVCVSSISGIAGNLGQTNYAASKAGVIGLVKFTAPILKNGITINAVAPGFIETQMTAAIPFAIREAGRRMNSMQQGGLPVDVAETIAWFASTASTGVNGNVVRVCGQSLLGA

FabG (ABO11256.2) [1] = target: T2, FabG (ABO11256.2) (Acinetobacter baumannii, UniProt V5VHN7); test: coenzyme oxidation, absorbance at […] nm; format: biochemical; conditions: 500 µM acetoacetyl-CoA, 200 µM NADPH, 20 mM HEPES pH 7.4, 125 mM NaCl, 37 °C, 30 min
T2 construct: codon-optimised gene in pMCSG21, E. coli BL21(DE3) pLysS; N-terminal 6-His tag cut by TEV; 244 residues, 26 kDa protomer, homotetramer about 100 kDa
T2 sequence (V5VHN7 1-244): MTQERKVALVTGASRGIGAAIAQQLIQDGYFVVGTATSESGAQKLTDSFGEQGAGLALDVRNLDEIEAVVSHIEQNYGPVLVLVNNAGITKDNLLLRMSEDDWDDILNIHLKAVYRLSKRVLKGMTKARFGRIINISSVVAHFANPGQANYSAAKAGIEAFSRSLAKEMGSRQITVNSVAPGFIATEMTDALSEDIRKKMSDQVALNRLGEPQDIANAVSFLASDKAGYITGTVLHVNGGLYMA

FabG (ABO11256.2) [2] = target: T2, FabG (ABO11256.2); test: X-ray crystal structure of co-crystal, […] Å; format: binding; conditions: co-crystallised at 1:10 protein to coenzyme, 0.1 M Tris pH 8.0, 2 M ammonium sulphate; coenzyme site

Row | Structure (SMILES) | coenzyme oxidation, absorbance at 340 nm (HMwFabG (ABO12488.2)) | coenzyme oxidation, absorbance at 340 nm (FabG (ABO11256.2) [1]) | X-ray crystal structure of co-crystal, 1.85 Å (FabG (ABO11256.2) [2])
1 | NC(=O)C1=CN([C@@H]2O[C@H](COP(=O)(O)OP(=O)(O)OC[C@H]3O[C@@H](n4cnc5c(N)ncnc54)[C@H](O)[C@@H]3O)[C@@H](O)[C@H]2O)C=CC1 [NADH] | Our enzyme assays showed clear preference for NADH as the catalytic coenzyme | – | –
2 | CC(=O)CC(=O)SCCNC(=O)CCNC(=O)[C@H](O)C(C)(C)COP(=O)(O)OP(=O)(O)OC[C@H]1O[C@@H](n2cnc3c(N)ncnc32)[C@H](O)[C@@H]1OP(=O)(O)O [acetoacetyl-CoA] | Enzyme activity of HMwFabG with acetoacetyl-CoA | enzyme assays were conducted in the presence of a substrate mimic, acetoacetyl-CoA | –
3 | NC(=O)C1=CN([C@@H]2O[C@H](COP(=O)(O)OP(=O)(O)OC[C@H]3O[C@@H](n4cnc5c(N)ncnc54)[C@H](OP(=O)(O)O)[C@@H]3O)[C@@H](O)[C@H]2O)C=CC1 [NADPH] | – | – | strong positive density allowing NADPH to be modelled within each protomer
